Data on 25 compounds can be found in patent publication EP2951180B1, “2,6,7,8 SUBSTITUTED PURINES AS HDM2 INHIBITORS” (Merck Sharp & Dohme Corp., priority 2013, dated 2014).

T1 sequence (Q00987 17-125): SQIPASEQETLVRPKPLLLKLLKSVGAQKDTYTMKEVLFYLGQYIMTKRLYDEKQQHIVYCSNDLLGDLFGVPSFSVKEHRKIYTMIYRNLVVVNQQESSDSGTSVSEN

The first assay has as its target T1, HDM2 (Homo sapiens, UniProt Q00987).
T1 construct: Thioredoxin (N); made in house; host or cells: E. coli strain BL21(DE3)Rosetta
Briefly: HDM2 FRET assay (inhibition of binding of FITC labeled p53-pocket peptide to HDM2). Particulars: FRET IC50. The method in brief: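 TR-FRET with 0.5 nM His-tagged recombinant HDM2, 3 nM FITC-labelled p53 peptide and 0.25 nM Tb-anti-His antibody in PBS, 0.01% BSA, 0.01% Tween-20, 0.1% DMSO. IC50 from em520/em495 ratio over 10-point dilutions, 4-parameter logistic fit.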
Usually IC50 stands for the concentration at which inhibition is half-maximal. The compound `C[C@@H](Nc1nc(C(=O)O)nc2nc(N3C4CCC3COC4)n(Cc3ccc(C(F)(F)F)cc3)c12)C1CCC1` [Example 9.76, 6-{[(1R)-1-cyclobutylethyl]amino}-8-(3-oxa-8-azabicyclo[3.2.1]oct-8-yl)-7-[4-(trifluoromethyl)benzyl]-7H-purine-2-carboxylic acid] had a half-inhibitory concentration (IC50) of 15.9 nM.

Staying with this assay, now noted: Table 9; read-out: FRET IC50.
For the compound `C[C@@H](Nc1nc(C(=O)O)nc2nc(N3CCCC3c3cccc(F)c3)n(Cc3ccc(C(F)(F)F)cc3)c12)C1CCC1` (stereo partly drawn) [Example 9.60, 6-{[(1R)-1-cyclobutylethyl]amino}-8-[2-(3-fluorophenyl)pyrrolidin-1-yl]-7-[4-(trifluoromethyl)benzyl]-7H-purine-2-carboxylic acid], the half-inhibitory concentration (IC50) turned out to be 10.2 nM.

With `Cc1cc(-c2ccccc2)nn1-c1nc2nc(C(=O)O)nc(N[C@H](C)C3CCC3)c2n1Cc1ccc(C(F)(F)F)cc1` [Example 9.61, 6-{[(1R)-1-cyclobutylethyl]amino}-8-(5-methyl-3-phenyl-1H-pyrazol-1-yl)-7-[4-(trifluoromethyl)benzyl]-7H-purine-2-carboxylic acid], the IC50 worked out at 300 nM.

Turning to `C[C@@H](Nc1nc(C(=O)O)nc2nc(N3CCCC[C@@H]3c3ccccc3)n(Cc3ccc(C(F)(F)F)cc3)c12)C1CCC1` [Example 9.62, 6-{[(1R)-1-cyclobutylethyl]amino}-8-[(2R)-2-phenylpiperidin-1-yl]-7-[4-(trifluoromethyl)benzyl]-7H-purine-2-carboxylic acid], the IC50 is 17.3 nM.

For the compound `C[C@@H](Nc1nc(C(=O)O)nc2nc(N3CCCC[C@H]3c3ccccc3)n(Cc3ccc(C(F)(F)F)cc3)c12)C1CCC1` [Example 9.63, 6-{[(1R)-1-cyclobutylethyl]amino}-8-[(2S)-2-phenylpiperidin-1-yl]-7-[4-(trifluoromethyl)benzyl]-7H-purine-2-carboxylic acid], the IC50 worked out at 3.06 nM.

Consider `CC(C)CC1COCCN1c1nc2nc(C(=O)O)nc(N[C@H](C)C3CCC3)c2n1Cc1ccc(C(F)(F)F)cc1` (stereo partly drawn) [Example 9.66, 6-{[(1R)-1-cyclobutylethyl]amino}-8-[3-(2-methylpropyl)morpholin-4-yl]-7-[4-(trifluoromethyl)benzyl]-7H-purine-2-carboxylic acid], for which the IC50 was found to be 6.07 nM.

`C[C@@H](Nc1nc(-c2noc(=O)[nH]2)nc2nc(N3CCCCC3c3ccccc3)n(Cc3ccc(C(F)(F)F)cc3)c12)C1CCC1` (stereo partly drawn) [Example 9.67, 3-(6-{[(1R)-1-cyclobutylethyl]amino}-8-(2-phenylpiperidin-1-yl)-7-[4-(trifluoromethyl)benzyl]-7H-purin-2-yl)-1,2,4-oxadiazol-5(4H)-one]: the half-inhibitory concentration (IC50) was found to be 12.7 nM.

For `C[C@@H](Nc1nc(C(=O)O)nc2nc(N3CCCCC3Cc3cccc(C(F)(F)F)c3)n(Cc3ccc(C(F)(F)F)cc3)c12)C1CCC1` (stereo partly drawn) [Example 9.68, 6-{[(1R)-1-cyclobutylethyl]amino}-7-[4-(trifluoromethyl)benzyl]-8-{2-[3-(trifluoromethyl)benzyl]piperidin-1-yl}-7H-purine-2-carboxylic acid], the IC50 stood at 110 nM.

On to `C[C@@H](Nc1nc(C(=O)O)nc2nc(N3CCCCC3Cc3ccc(F)cc3)n(Cc3ccc(C(F)(F)F)cc3)c12)C1CCC1` (stereo partly drawn) [Example 9.69, 6-{[(1R)-1-cyclobutylethyl]amino}-8-[2-(4-fluorobenzyl)piperidin-1-yl]-7-[4-(trifluoromethyl)benzyl]-7H-purine-2-carboxylic acid], for which the concentration for half-maximal inhibition (IC50) came out at 7.92 nM.

As for `COc1ccc(C2CCCCN2c2nc3nc(C(=O)O)nc(N[C@H](C)C4CCC4)c3n2Cc2ccc(C(F)(F)F)cc2)cc1` (stereo partly drawn) [Example 9.70, 6-{[(1R)-1-cyclobutylethyl]amino}-8-[2-(4-methoxyphenyl)piperidin-1-yl]-7-[4-(trifluoromethyl)benzyl]-7H-purine-2-carboxylic acid], the IC50 is 9.29 nM.

Take `CCC(c1ccccc1)N(C)c1nc2nc(-c3noc(=O)[nH]3)nc(N[C@H](C)C3CCC3)c2n1Cc1ccc(C(F)(F)F)c(F)c1` (stereo partly drawn) [Example 9.71, 3-(6-{[(1R)-1-cyclobutylethyl]amino}-7-[3-fluoro-4-(trifluoromethyl)benzyl]-8-[methyl(1-phenylpropyl)amino]-7H-purin-2-yl)-1,2,4-oxadiazol-5(4H)-one]: the IC50 amounted to 18.1 nM.

For `CC(c1ccccn1)N(C)c1nc2nc(-c3noc(=O)[nH]3)nc(N[C@H](C)C3CCC3)c2n1Cc1ccc(C(F)(F)F)c(F)c1` (stereo partly drawn) [Example 9.72, 3-(6-{[(1R)-1-cyclobutylethyl]amino}-7-[3-fluoro-4-(trifluoromethyl)benzyl]-8-[methyl(1-pyridin-2-ylethyl)amino]-7H-purin-2-yl)-1,2,4-oxadiazol-5(4H)-one], the IC50 came out at 4.64 nM.

Consider `CC(c1cccc(F)c1)N(C)c1nc2nc(-c3noc(=O)[nH]3)nc(N[C@H](C)C3CCC3)c2n1Cc1ccc(C(F)(F)F)c(F)c1` (stereo partly drawn) [Example 9.73, 3-(6-{[(1R)-1-cyclobutylethyl]amino}-8-{[1-(3-fluorophenyl)ethyl](methyl)amino}-7-[3-fluoro-4-(trifluoromethyl)benzyl]-7H-purin-2-yl)-1,2,4-oxadiazol-5(4H)-one], for which the 50% inhibitory concentration (IC50) came out at 16.2 nM.

On to `C[C@@H](Nc1nc(C(=O)O)nc2nc(N3CCCC34CCc3ccccc34)n(Cc3ccc(C(F)(F)F)cc3)c12)C1CCC1` (stereo partly drawn) [Example 9.74, 6-{[(1R)-1-cyclobutylethyl]amino}-8-(2,3-dihydro-1'H-spiro[indene-1,2'-pyrrolidin]-1'-yl)-7-[4-(trifluoromethyl)benzyl]-7H-purine-2-carboxylic acid], for which the IC50 was 12.9 nM.

Regarding `CC(Nc1nc2nc(-c3noc(=O)[nH]3)nc(N[C@H](C)C3CCC3)c2n1Cc1ccc(C(F)(F)F)cc1)c1ccccn1` (stereo partly drawn) [Example 9.75, 3-(6-{[(1R)-1-cyclobutylethyl]amino}-8-[(1-pyridin-2-ylethyl)amino]-7-[4-(trifluoromethyl)benzyl]-7H-purin-2-yl)-1,2,4-oxadiazol-5(4H)-one], the IC50 is 8.12 nM.

On to `CC(C)CN(C)c1nc2nc(-c3noc(=O)[nH]3)nc(N[C@H](C)C3CCC3)c2n1Cc1ccc(C(F)(F)F)cc1` [Example 9.81, 3-(6-{[(1R)-1-cyclobutylethyl]amino}-8-[methyl(2-methylpropyl)amino]-7-[4-(trifluoromethyl)benzyl]-7H-purin-2-yl)-1,2,4-oxadiazol-5(4H)-one], for which the IC50 turned out to be 11.6 nM.

Regarding `C[C@@H](Nc1nc(-c2noc(=O)[nH]2)nc2nc(N(C)C3CCCC3)n(Cc3ccc(C(F)(F)F)cc3)c12)C1CCC1` [Example 9.82, 3-(6-{[(1R)-1-cyclobutylethyl]amino}-8-[cyclopentyl(methyl)amino]-7-[4-(trifluoromethyl)benzyl]-7H-purin-2-yl)-1,2,4-oxadiazol-5(4H)-one], the concentration for half-maximal inhibition (IC50) worked out at 13.7 nM.

`C[C@@H](Nc1nc(-c2noc(=O)[nH]2)nc2nc(N3CCCC3(C)C)n(Cc3ccc(C(F)(F)F)cc3)c12)C1CCC1` [Example 9.83, 3-(6-{[(1R)-1-cyclobutylethyl]amino}-8-(2,2-dimethylpyrrolidin-1-yl)-7-[4-(trifluoromethyl)benzyl]-7H-purin-2-yl)-1,2,4-oxadiazol-5(4H)-one]: the IC50 is 25.6 nM.

For the compound `C[C@@H](Nc1nc(-c2noc(=O)[nH]2)nc2nc(N(C)CC(C)(C)C)n(Cc3ccc(C(F)(F)F)cc3)c12)C1CCC1` [Example 9.84, 3-(6-{[(1R)-1-cyclobutylethyl]amino}-8-[(2,2-dimethylpropyl)(methyl)amino]-7-[4-(trifluoromethyl)benzyl]-7H-purin-2-yl)-1,2,4-oxadiazol-5(4H)-one], the IC50 turned out to be 13.3 nM.

As for `C[C@@H](Nc1nc(-c2noc(=O)[nH]2)nc2nc(N3CCCCC34CC4)n(Cc3ccc(C(F)(F)F)cc3)c12)C1CCC1` [Example 9.85, 3-{8-(4-azaspiro[2.5]oct-4-yl)-6-{[(1R)-1-cyclobutylethyl]amino}-7-[4-(trifluoromethyl)benzyl]-7H-purin-2-yl}-1,2,4-oxadiazol-5(4H)-one], the half-inhibitory concentration (IC50) was 9.84 nM.

Turning to `CC(C)C1CCCN1c1nc2nc(-c3noc(=O)[nH]3)nc(N[C@H](C)C3CCC3)c2n1Cc1ccc(C(F)(F)F)cc1` (stereo partly drawn) [Example 9.86, 3-(6-{[(1R)-1-cyclobutylethyl]amino}-8-[2-(1-methylethyl)pyrrolidin-1-yl]-7-[4-(trifluoromethyl)benzyl]-7H-purin-2-yl)-1,2,4-oxadiazol-5(4H)-one], the IC50 amounted to 10.2 nM.

`C[C@@H](Nc1nc(-c2noc(=O)[nH]2)nc2nc(N(C)C3CCCCC3)n(Cc3ccc(C(F)(F)F)cc3)c12)C1CCC1` [Example 9.87, 3-(6-{[(1R)-1-cyclobutylethyl]amino}-8-[cyclohexyl(methyl)amino]-7-[4-(trifluoromethyl)benzyl]-7H-purin-2-yl)-1,2,4-oxadiazol-5(4H)-one]: the IC50 is 23.4 nM.

As to `C[C@@H](Nc1nc(-c2noc(=O)[nH]2)nc2nc(N3CCOCC3(C)C)n(Cc3ccc(C(F)(F)F)cc3)c12)C1CCC1` [Example 9.88, 3-(6-{[(1R)-1-cyclobutylethyl]amino}-8-(3,3-dimethylmorpholin-4-yl)-7-[4-(trifluoromethyl)benzyl]-7H-purin-2-yl)-1,2,4-oxadiazol-5(4H)-one], the IC50 is 12.2 nM.

For the compound `COCC1(N(C)c2nc3nc(-c4noc(=O)[nH]4)nc(N[C@H](C)C4CCC4)c3n2Cc2ccc(C(F)(F)F)cc2)CC1` [Example 9.89, 3-(6-{[(1R)-1-cyclobutylethyl]amino}-8-{[1-(methoxymethyl)cyclopropyl] (methyl)amino}-7-[4-(trifluoromethyl)benzyl]-7H-purin-2-yl)-1,2,4-oxadiazol-5(4H)-one], the IC50 was 22.6 nM.

Regarding `C[C@@H](Nc1nc(-c2noc(=O)[nH]2)nc2nc(N3CCCCC3CF)n(Cc3ccc(C(F)(F)F)cc3)c12)C1CCC1` (stereo partly drawn) [Example 9.90, 3-(6-{[(1R)-1-cyclobutylethyl]amino}-8-[2-(fluoromethyl)piperidin-1-yl]-7-[4-(trifluoromethyl)benzyl]-7H-purin-2-yl)-1,2,4-oxadiazol-5(4H)-one], the IC50 is 12.1 nM.
